Publication PMC11356900, “Synthesis, Structural Properties and Biological Activities of Novel Hydrazones of 2-, 3-, 4-Iodobenzoic Acid” (Molecules, 2024)
Values after ≈ are worked out from the molar mass of the structure shown.

What was measured:
L929 cell line = experiment: MTT cytotoxicity assay; format: cell-based, mouse
Procedure, shortened: (§1)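 Exponentially growing cells, cultured 24 h, then exposed to 10–100 μM compound for 24 and 48 h. MTT added for 4 h at 37 °C, formazan dissolved in DMSO, absorbance read at 570 nm; triplicate experiments.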

A549 cell line = experiment: MTT cytotoxicity assay; format: cell-based
Procedure, shortened: as §1

HeLa cell line = experiment: MTT cytotoxicity assay; format: cell-based; conditions: for cytotoxicity: 24 h culture
Procedure, shortened: as §1

T47D cell line = experiment: MTT cytotoxicity assay; format: cell-based
Procedure, shortened: as §1

[1] = system: Staphylococcus aureus ATCC 29213; experiment: Broth microdilution MIC/MBC; conditions: ATCC29213
[2] = system: Staphylococcus aureus ATCC 43300; experiment: Broth microdilution MIC/MBC; conditions: ATCC43300 / MRSA
[3] = system: Staphylococcus epidermidis ATCC 12228; experiment: Broth microdilution MIC/MBC; conditions: ATCC12228
[4] = system: Micrococcus luteus ATCC 10240; experiment: Broth microdilution MIC/MBC; conditions: Micrococcus luteus, ATCC10240
[5] = system: Bacillus cereus ATCC 10876; experiment: Broth microdilution MIC/MBC; conditions: Bacillus cereus, ATCC10876
[6] = system: Salmonella typhimurium ATCC 14028; experiment: Broth microdilution MIC/MBC

`O=C(N/N=C/c1cc(Cl)cc(I)c1O)c1ccc(I)cc1` [Compound 27, N-[(5-chloro-2-hydroxy-3-iodophenyl)methylidene]-4-iodobenzohydrazide] was tested, and the cell proliferation (L929 cell line; L929, 24h, 10 µM, Repeat No 1) was 101%, the cell proliferation (L929 cell line; L929, 24h, 10 µM, Repeat No 2) was 89% and the cell proliferation (L929 cell line; L929, 24h, 25 µM, Repeat No 1) was 96%. For the same compound, the cell proliferation (L929 cell line; L929, 24h, 25 µM, Repeat No 2) was 92%, the cell proliferation (L929 cell line; L929, 24h, 50 µM, Repeat No 1) was 95% and the cell proliferation (L929 cell line; L929, 24h, 50 µM, Repeat No 2) was 81%. It also gave a cell proliferation (L929 cell line; L929, 24h, 75 µM, Repeat No 1) of 103%, a cell proliferation (L929 cell line; L929, 24h, 75 µM, Repeat No 2) of 107% and a cell proliferation (L929 cell line; L929, 24h, 100 µM, Repeat No 1) of 92%. The cell proliferation (L929 cell line; L929, 24h, 100 µM, Repeat No 2) was 91%, the cytotoxicity (L929 cell line; L929, 24 h culture, tested doses 10–100 µM) was “approximately 20%” and the cell proliferation (L929 cell line; L929, 48h, 10 µM, Repeat No 1) was 92%. For the same compound, the cell proliferation (L929 cell line; L929, 48h, 10 µM, Repeat No 2) was 89%, the cell proliferation (L929 cell line; L929, 48h, 25 µM, Repeat No 1) was 95% and the cell proliferation (L929 cell line; L929, 48h, 25 µM, Repeat No 2) was 99%. It also gave a cell proliferation (L929 cell line; L929, 48h, 50 µM, Repeat No 1) of 92%, a cell proliferation (L929 cell line; L929, 48h, 50 µM, Repeat No 2) of 91% and a cell proliferation (L929 cell line; L929, 48h, 75 µM, Repeat No 1) of 99%. It also gave a cell proliferation (L929 cell line; L929, 48h, 75 µM, Repeat No 2) of 92%, a cell proliferation (L929 cell line; L929, 48h, 100 µM, Repeat No 1) of 87% and a cell proliferation (L929 cell line; L929, 48h, 100 µM, Repeat No 2) of 92%. The cell proliferation (A549 cell line; A549, 24h, 10 µM, Repeat No 1) was 95%, the cell proliferation (A549 cell line; A549, 24h, 10 µM, Repeat No 2) was 92% and the cell proliferation (A549 cell line; A549, 24h, 25 µM, Repeat No 1) was 97%. It also gave a cell proliferation (A549 cell line; A549, 24h, 25 µM, Repeat No 2) of 89%, a cell proliferation (A549 cell line; A549, 24h, 50 µM, Repeat No 1) of 94% and a cell proliferation (A549 cell line; A549, 24h, 50 µM, Repeat No 2) of 87%. It also gave a cell proliferation (A549 cell line; A549, 24h, 75 µM, Repeat No 1) of 87%, a cell proliferation (A549 cell line; A549, 24h, 75 µM, Repeat No 2) of 92% and a cell proliferation (A549 cell line; A549, 24h, 100 µM, Repeat No 1) of 109%. For the same compound, the cell proliferation (A549 cell line; A549, 24h, 100 µM, Repeat No 2) was 103%, the “effect on proliferation in words” value (A549 cell line; A549, 24 h culture, dose of 100 µM) was “increase in the proliferation of cancer cells” and the cell proliferation (A549 cell line; A549, 48h, 10 µM, Repeat No 1) was 84%. For the same compound, the cell proliferation (A549 cell line; A549, 48h, 10 µM, Repeat No 2) was 87%, the cell proliferation (A549 cell line; A549, 48h, 25 µM, Repeat No 1) was 87% and the cell proliferation (A549 cell line; A549, 48h, 25 µM, Repeat No 2) was 82%. It also gave a cell proliferation (A549 cell line; A549, 48h, 50 µM, Repeat No 1) of 88%, a cell proliferation (A549 cell line; A549, 48h, 50 µM, Repeat No 2) of 89% and a cell proliferation (A549 cell line; A549, 48h, 75 µM, Repeat No 1) of 91%. The cell proliferation (A549 cell line; A549, 48h, 75 µM, Repeat No 2) was 87%, the cell proliferation (A549 cell line; A549, 48h, 100 µM, Repeat No 1) was 98% and the cell proliferation (A549 cell line; A549, 48h, 100 µM, Repeat No 2) was 95%. For the same compound, the cell proliferation (HeLa cell line; 24h, 10 µM, Repeat No 1) was 74%, the cell proliferation (HeLa cell line; 24h, 10 µM, Repeat No 2) was 83% and the cell proliferation (HeLa cell line; 24h, 25 µM, Repeat No 1) was 69%. For the same compound, the cell proliferation (HeLa cell line; 24h, 25 µM, Repeat No 2) was 73%, the cell proliferation (HeLa cell line; 24h, 50 µM, Repeat No 1) was 61% and the cell proliferation (HeLa cell line; 24h, 50 µM, Repeat No 2) was 67%. The cell proliferation (HeLa cell line; 24h, 75 µM, Repeat No 1) was 72%, the cell proliferation (HeLa cell line; 24h, 75 µM, Repeat No 2) was 69% and the cell proliferation (HeLa cell line; 24h, 100 µM, Repeat No 1) was 63%. For the same compound, the cell proliferation (HeLa cell line; 24h, 100 µM, Repeat No 2) was 59%, the cytotoxicity (HeLa cell line; dose of 50 µM) was 37% and the cytotoxicity (HeLa cell line; dose of 100 µM) was 41%. For the same compound, the cell proliferation (HeLa cell line; 48h, 10 µM, Repeat No 1) was 77%, the cell proliferation (HeLa cell line; 48h, 10 µM, Repeat No 2) was 82% and the cell proliferation (HeLa cell line; 48h, 25 µM, Repeat No 1) was 82%. For the same compound, the cell proliferation (HeLa cell line; 48h, 25 µM, Repeat No 2) was 71%, the cell proliferation (HeLa cell line; 48h, 50 µM, Repeat No 1) was 61% and the cell proliferation (HeLa cell line; 48h, 50 µM, Repeat No 2) was 49%. It also gave a cell proliferation (HeLa cell line; 48h, 75 µM, Repeat No 1) of 51%, a cell proliferation (HeLa cell line; 48h, 75 µM, Repeat No 2) of 43% and a cell proliferation (HeLa cell line; 48h, 100 µM, Repeat No 1) of 63%. For the same compound, the cell proliferation (HeLa cell line; 48h, 100 µM, Repeat No 2) was 57%, the cell proliferation (T47D cell line; 24h, 10 µM, Repeat No 1) was 96% and the cell proliferation (T47D cell line; 24h, 10 µM, Repeat No 2) was 91%. For the same compound, the cell proliferation (T47D cell line; 24h, 25 µM, Repeat No 1) was 91%, the cell proliferation (T47D cell line; 24h, 25 µM, Repeat No 2) was 82% and the cell proliferation (T47D cell line; 24h, 50 µM, Repeat No 1) was 83%. The cell proliferation (T47D cell line; 24h, 50 µM, Repeat No 2) was 79%, the cell proliferation (T47D cell line; 24h, 75 µM, Repeat No 1) was 84% and the cell proliferation (T47D cell line; 24h, 75 µM, Repeat No 2) was 87%. For the same compound, the cell proliferation (T47D cell line; 24h, 100 µM, Repeat No 1) was 86%, the cell proliferation (T47D cell line; 24h, 100 µM, Repeat No 2) was 91% and the cell proliferation (T47D cell line; 48h, 10 µM, Repeat No 1) was 82%. It also gave a cell proliferation (T47D cell line; 48h, 10 µM, Repeat No 2) of 75%, a cell proliferation (T47D cell line; 48h, 25 µM, Repeat No 1) of 88% and a cell proliferation (T47D cell line; 48h, 25 µM, Repeat No 2) of 84%. For the same compound, the cell proliferation (T47D cell line; 48h, 50 µM, Repeat No 1) was 81%, the cell proliferation (T47D cell line; 48h, 50 µM, Repeat No 2) was 80% and the cell proliferation (T47D cell line; 48h, 75 µM, Repeat No 1) was 79%. It also gave a cell proliferation (T47D cell line; 48h, 75 µM, Repeat No 2) of 72%, a cell proliferation (T47D cell line; 48h, 100 µM, Repeat No 1) of 83% and a cell proliferation (T47D cell line; 48h, 100 µM, Repeat No 2) of 81%. It also gave an MBC [1] of 125 µg/mL (≈ 237 µM), an MIC [1] of 62.5 µg/mL (≈ 119 µM) and an MBC [2] of 250 µg/mL (≈ 475 µM). For the same compound, the MIC [2] was 62.5 µg/mL (≈ 119 µM), the MBC [3] was 31.2 µg/mL (≈ 59.4 µM) and the MIC [3] was 31.2 µg/mL (≈ 59.4 µM). It also gave an MBC [4] of 250 µg/mL (≈ 475 µM), an MIC [4] of 125 µg/mL (≈ 237 µM) and an MBC [5] of 250 µg/mL (≈ 475 µM). For the same compound, the MIC [5] was 62.5 µg/mL (≈ 119 µM), the MBC ([6]; Salmonella enterica) was 1000 µg/mL (≈ 1900 µM) and the MIC ([6]; Salmonella enterica) was 500 µg/mL (≈ 950 µM). The MBC/MIC ([6]; Salmonella typhimurium ATCC 14028) was 2.
